# System: IL-6
# Experiment: MG-63 Cell-Based Assay, IL-6 release after IL-1β stimulation (ELISA)
# Conditions: Homo sapiens, MG63 cells, IL-1β stimulated, 24 hours with compound, read-out: IC50 (µM) in MG63 Cells IL6
# Text: (§1) The MG63 cell line, a human osteosarcoma cell line, was purchased from American Type Culture Collection (ATCC; Rockville, MD) and grown in the medium recommended by ATCC. When stimulated with human IL-1β , MG63 cells release matrix metalloproteinase 3 (MMP-3), an AP-1 dependent inflammatory mediator and IL-6, a NF-κB-dependent mediator. In this assay the ability of a test compound to block MMP-3 expression and not block IL-6 expression is an indication that the compound is a selective inhibitor of the AP-1 transcription pathway.
# (§2) On day 1 the cells were plated at 2.5X10^4 cells/well in 96 well plates. After 24 hours, dexamethasone (the assay control) (Sigma, St. Louis, MO) and the test compounds were diluted to appropriate concentrations and added to the MG63 cells. The cells were incubated with the compounds for 24 hours after which the supernatants were removed and analyzed by ELISA.
# (§3) In the ELISA, 96 well plates were coated with antibody to MMP-3 or IL-6. Supernatants were added to the coated plates and any antigen (MMP-3 or IL-6) in the supernatant bound to the antibody coated on the plates. The plates were then washed with PBS containing 0.05% Tween 20 (Sigma, St. Louis, MO) and the biotinylated secondary antibody was added. This secondary antibody binds to the already bound antigen creating a "sandwich effect". Plates were washed as described above and horseradish peroxidase (HRP)-streptavidin conjugate (Sigma, St. Louis, MO) was added to the plates. HRP-streptavidin bound to the biotin-antibody conjugate. The plates were washed and TMB substrate (Kirkegaard and Perry Labs, Gaithersburg, MD) was added to the wells. This substrate changes color in the presence of HRP-streptavidin. The intensity of the color (measured at 450 nm) is proportional to the amount of MMP-3 or IL-6 produced by the MG63 cells upon exposure to IL-1β and the test compounds. Optical density values were converted to concentration (pg/ml or Units/ml) based on a standard curve included in the assay. IC50 values for each test compound were determined from the linear regression of a plot of the logarithm of the concentration of compound versus amount of MMP-3 or IL-6 secreted. (The MMP-3 antibodies were prepared in-house using standard hybridoma technology and the IL-6 antibodies were obtained from either Genzyme, Cambridge, MA or Pharmingen, San Diego, CA.).
row,IC50 [µM],SMILES
1,< 20,"C#CC(O)c1ccc[nH]1 (stereo not drawn) [CC, 3-Hydroxy-3-(1H-pyrrol-2-yl)-1-propyne]"

# Target: rat SAPK (isoform β) (Rattus norvegicus, UniProt P49187)
# Experiment: SAPK FlashPlate Assay (inhibition of cJun phosphorylation)
# Assay type: biochemical
# Conditions: GST-cJun substrate, 30 minutes at 37 °C
# Experimental: "IC50" refers to the concentration of a particular 4- or 5-alkynyloxindole or 4-or 5-alkenyloxindole required to inhibit 50% of cJun phosphorylation, which is a measure of inhibition of SAPK activity. IC50 can be measured, inter alia, using the assay described herein in Example 102.
# Human JNK is highly homologous to rat SAPK. To measure the inhibitory activity of test compounds, the compounds were tested in the rat SAPK assay.
# For the SAPK assay, purified GST-cJun (a chimeric protein containing cJun, a natural substrate of JNK) was coated on 96 well FlashPlates (New England Nuclear, Boston, MA). Purified rat SAPK (isoform β, Kyriakis et al. supra) was preincubated with preparations containing MEKK-1 and MKK4 for 30 minutes at 37 °C in assay buffer containing 25 mM HEPES, pH 7.5, 150 mM NaCl, 20 mM MgCl2, 2 mM DTT, 0.001% Tween 20, 1 µM ATP freshly added. In the preincubation step, MEKK-1 phosphorylates and activates MKK-4, which in tum phosphorylates and activates SAPK. The activated SAPK was then added to the cJun coated FlashPlates along with ^33P-ATP (0.32 µCi per reaction) and test compounds. The plates were incubated for 30 minutes at 37 °C, then washed with PBS, 0.01% Tween 20, and counted in the Topcount scintillation counter (Packard Instrument Co., Downers Grove, IL). Dilutions of compounds were tested in duplicate in each assay. The percent inhibition of cJun phosphorylation (a measure of inhibition of SAPK activity) was determined by the following formula: [formula] where "test compound" refers to the average counts per minute of the test duplicates, "nonspecific" refers to the average counts per minute when no SAPK was added, and "total" refers to the average counts per minute when no compound was added.
# rat SAPK (isoform β), sequence (P49187 whole entry, canonical isoform): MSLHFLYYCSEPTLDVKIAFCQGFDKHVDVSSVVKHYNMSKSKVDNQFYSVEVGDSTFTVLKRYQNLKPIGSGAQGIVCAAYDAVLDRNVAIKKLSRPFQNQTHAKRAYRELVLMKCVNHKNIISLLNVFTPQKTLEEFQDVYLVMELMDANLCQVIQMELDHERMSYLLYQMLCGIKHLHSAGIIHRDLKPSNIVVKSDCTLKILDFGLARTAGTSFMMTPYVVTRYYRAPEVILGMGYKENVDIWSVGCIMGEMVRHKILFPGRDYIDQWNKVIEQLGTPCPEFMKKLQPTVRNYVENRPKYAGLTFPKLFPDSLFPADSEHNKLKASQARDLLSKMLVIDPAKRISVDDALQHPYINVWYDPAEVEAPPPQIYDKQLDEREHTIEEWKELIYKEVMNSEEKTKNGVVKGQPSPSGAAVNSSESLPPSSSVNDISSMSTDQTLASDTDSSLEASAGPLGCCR
row,SMILES,IC50 [µM]
1,"COc1cc(C(O)C#Cc2cccc3c2/C(=C/c2[nH]ccc2OC)C(=O)N3)ccc1OCCN1CCOCC1 (racemic) [Compound MM, rac-(Z)-1,3-Dihydro-4-[3-hydroxy-3-[3-methoxy-4-[2-(4-morpholinyl)-ethoxy]-phenyl]-1-propynyl]-3-[(3-methoxy-1H-pyrrol-2-yl)methylene]-2H-indol-2-one]",< 1
2,"COc1cc[nH]c1/C=C1\C(=O)Nc2cccc(C#CC(C)(O)c3ccccc3)c21 (racemic) [Compound T, rac-(Z)-1,3-Dihydro-4-[3-hydroxy-3-phenyl-1-butynyl]-3-[(3-methoxy-1H-pyrrol-2-yl)methylene]-2H-indol-2-one]",0.253
3,"COc1cc[nH]c1/C=C1\C(=O)Nc2cccc(C#CC(O)c3ccc[nH]3)c21 (racemic) [DD, rac-(Z)-1,3-Dihydro-4-[3-hydroxy-3-(1H-pyrrol-2-yl)-1-propynyl]-3-[(3-methoxy-1H-pyrrol-2-yl)methylene]-2H-indol-2-one]",< 1
4,"COc1ccc(C(O)C#Cc2cccc3c2/C(=C/c2[nH]ccc2OC)C(=O)N3)cc1OC (racemic) [FF, rac-(Z)-1,3-Dihydro-4-[3-(3,4-dimethoxyphenyl)-3-hydroxy-1-propynyl]-3-[(3-methoxy-1H-pyrrol-2-yl)methylene]-2H-indol-2-one]",< 1
5,"COc1cc[nH]c1/C=C1\C(=O)Nc2cccc(C#CC(O)c3sccc3OC)c21 (racemic) [OO, rac-(Z)-1,3-Dihydro-4-[3-hydroxy-3-(3-methoxy-2-thiophenyl)-1-propynyl]-3-[(3-methoxy-1H-pyrrol-2-yl)methylene]-2H-indol-2-one]",< 1
6,"COc1cc(C(O)C#Cc2cccc3c2/C(=C/c2[nH]ccc2OC)C(=O)N3)ccc1OCC(=O)O (racemic) [RR, rac-(Z)-[4-[3-[2,3-Dihydro-3-[(3-methoxy-1H-pyrrol-2-yl)methylene]-2-oxo-1H-indol-4-yl]-1-hydroxy-2-propynyl]-2-methoxyphenoxy]acetic acid]",< 1
7,"COc1cc[nH]c1/C=C1\C(=O)Nc2cccc(C#CC(O)c3cc(OC)c4c(c3)OCO4)c21 (racemic) [SS, rac-(Z)-4-[3-hydroxy-3-(4-methoxy-1,3-benzodioxol-6-yl)-1-propynyl]-1,3-dihydro-3-[(3-methoxy-1H-pyrrol-2-yl)methylene]-2H-indol-2-one]",< 1
8,"COc1cc[nH]c1/C=C1\C(=O)Nc2cccc(C#CC(O)c3ccco3)c21 (racemic) [VV, rac-(Z)-1,3-Dihydro-4-[3-(2-furanyl)-3-hydroxy-1-propynyl]-3-[(3-methoxy-1H-pyrrol-2-yl)methylene]-2H-indol-2-one]",< 1
9,"COc1cc[nH]c1/C=C1\C(=O)Nc2cccc(C#CC(O)c3ccc(OCC(=O)OC(C)(C)C)cc3)c21 (racemic) [XX, rac-(Z)-[4-[3-[2,3-dihydro-3-[(3-methoxy-1H-pyrrol-2-yl)methylene]-2-oxo-1H-indol-4-yl]-1-hydroxy-2-propynyl]phenoxy]acetic acid 1,1-dimethylethyl ester]",< 1
10,"COc1cc[nH]c1/C=C1\C(=O)Nc2cccc(C#CC(O)c3ccc(OCC(=O)O)cc3)c21 (racemic) [YY, rac-(Z)-[4-[3-[2,3-dihydro-3-[(3-methoxy-1H-pyrrol-2-yl)methylene]-2-oxo-1H-indol-4-yl]-1-hydroxy-2-propynyl]phenoxy]acetic acid]",< 1
11,"COc1cc[nH]c1/C=C1\C(=O)Nc2cccc(C#Cc3ccccn3)c21 [DDD, (Z)-1,3-Dihydro-3-[(3-methoxy-1H-pyrrol-2-yl)methylene]-4-[(2-pyridinyl)ethynyl]-2H-indol-2-one]",< 1
12,"COc1cc[nH]c1/C=C1\C(=O)Nc2ccc(N)c(C#Cc3cccnc3)c21 [HHH, (Z)-5-Amino-1,3-dihydro-3-[(3-methoxy-1H-pyrrol-2-yl)methylene]-4-[(3-pyridinyl)ethynyl]-2H-indol-2-one]",< 1

# Continued, values first:
row,IC50 [µM],SMILES
1,< 1,"COc1cc[nH]c1/C=C1\C(=O)Nc2cccc(C#CC(O)c3ccc(NC(C)=O)cc3)c21 (racemic) [BBB, rac-(Z)-4-[3-(4-Acetamidophenyl)-3-hydroxy-1-propynyl]-1,3-dihydro-3-[(3-methoxy-1H-pyrrol-2-yl)methylene]-2H-indol-2-one]"
2,< 1,"COc1ccccc1C(O)C#Cc1cccc2c1/C(=C/c1[nH]ccc1OC)C(=O)N2 (racemic) [Compound M, rac-(Z)-1,3-Dihydro-4-[3-hydroxy-3-(2-methoxyphenyl)-1-propynyl]-3-[(3-methoxy-1H-pyrrol-2-yl)methylene]-2H-indol-2-one]"
3,< 1,"COc1cc[nH]c1/C=C1\C(=O)Nc2cccc(C#CC(O)c3ccc(OCCN4CCOCC4)cc3)c21 (racemic) [Compound TT, rac-(Z)-1,3-Dihydro-4-[3-hydroxy-3-[4-[2-(4-morpholinyl)-ethoxy]-phenyl]-1-propynyl]-3-[(3-methoxy-1H-pyrrol-2-yl)methylene]-2H-indol-2-one]"
4,< 1,"COc1ccc(C(O)C#Cc2cccc3c2/C(=C/c2[nH]ccc2OC)C(=O)N3)cc1O (racemic) [HH, rac-(Z)-1,3-Dihydro-4-[3-hydroxy-3-(3-hydroxy-4-methoxyphenyl)-1-propynyl]-3-[(3-methoxy-1H-pyrrol-2-yl)methylene]-2H-indol-2-one]"
5,< 1,"COc1cc(OC)c(C(O)C#Cc2cccc3c2/C(=C/c2[nH]ccc2OC)C(=O)N3)cc1OC (racemic) [PP, rac-(Z)-1,3-Dihydro-4-[3-hydroxy-3-(2,4,5-trimethoxyphenyl)-1-propynyl]-3-[(3-methoxy-1H-pyrrol-2-yl)methylene]-2H-indol-2-one]"
6,< 1,"COc1cc[nH]c1/C=C1\C(=O)Nc2cccc(C#CC(O)c3ccc(O)cc3)c21 (racemic) [Q, rac-(Z)-1,3-Dihydro-4-[3-hydroxy-3-(4-hydroxyphenyl)-1-propynyl]-3-[(3-methoxy-1H-pyrrol-2-yl)methylene]-2H-indol-2-one]"
7,< 1,"COc1cc[nH]c1/C=C1\C(=O)Nc2cccc(C#CC(O)c3ccc(Cl)cc3OCSC)c21 (racemic) [UU, rac-(Z)-4-[3-(4-Chloro-2-methylsulfanylmethoxyphenyl)-3-hydroxy-1-propynyl]-1,3-dihydro-3-[(3-methoxy-1H-pyrrol-2-yl)methylene]-2H-indol-2-one]"
8,0.034,"COc1cc[nH]c1/C=C1\C(=O)Nc2cccc(C#CC(O)c3ccc(OCCCN(C)C)cc3)c21 (racemic) [V, rac-(Z)-1,3-Dihydro-4-[3-[4-(3-dimethylaminopropoxy)-phenyl]-3-hydroxy-1-propynyl]-3-[(3-methoxy-1H-pyrrol-2-yl)methylene]-2H-indol-2-one]"
9,< 1,"COc1cc[nH]c1/C=C1\C(=O)Nc2cccc(C#Cc3ccncc3)c21 [EEE, (Z)-1,3-Dihydro-3-[(3-methoxy-1 H-pyrrol-2-yl)methylene]-4-[(4-pyridinyl)ethynyl]-2H-indol-2-one]"
10,< 1,"COc1cc[nH]c1/C=C1\C(=O)Nc2ccc([N+](=O)[O-])c(C#Cc3cccnc3)c21 [GGG, (Z)-1,3-Dihydro-3-[(3-methoxy-1H-pyrrol-2-yl)methylene]-5-nitro-4-[(3-pyridinyl)ethynyl]-2H-indol-2-one]"

# System: MMP-3
# Experiment: MG-63 Cell-Based Assay, MMP-3 release after IL-1β stimulation (ELISA)
# Conditions: Homo sapiens, MG63 cells, IL-1β stimulated, 24 hours with compound, read-out: IC50 (µM) in MG63 Cells MMP3
# Text: as §1, §2, §3
row,IC50 [µM],SMILES
1,< 12.5,"C#CC(O)c1ccc[nH]1 (stereo not drawn) [CC, 3-Hydroxy-3-(1H-pyrrol-2-yl)-1-propyne]"

# — patent EP1149092B1, “4- AND 5-ALKYNYLOXINDOLES AND 4- AND 5-ALKENYLOXINDOLES” (F. HOFFMANN-LA ROCHE AG, priority 1998, dated 2000)
